Reference: US20260226470A1, “HEPATITIS B COMBINATION THERAPIES” (Aligos Therapeutics, Inc., priority 2023, published 2026)
Oligonucleotides are written 5' to 3', each unit as a sugar letter and its base; * is a phosphorothioate linkage, no mark a phosphodiester; rarer units and linkages stand in square brackets, end groups in braces. Plain capitals give the bases only. m = 2'-O-methyl; f = 2'-fluoro

What was measured:
[1] = tested on: HBV; test: siRNA treatment followed by CAM add-on, in vivo in mice, Example 3; conditions: FIGS. 13A-13B, 16A-16B; CAM 30 mpk BID day 63-98; siRNA-2 10 mpk SC QW day 0-98
Description: In the following example, initial treatment with an siRNA, followed by CAM add-on, was tested in vivo in mice.
The study design is described below in Table 9.
QW dosing of siRNA-2 was continued until the end of the study (day 98). HBV DNA, HBsAg, and HBeAg were measured weekly through day 98.

[2] = tested on: adeno-associated virus-hepatitis B virus (AAV-HBV) mice; test: In vivo compound efficacy in AAV-HBV mice, Example 1 (Compound 1 and siRNA-1); design: species or system Mouse: C57BL/6; conditions: plasma, follow-up to Day 189
Description: In vivo compound efficacy was evaluated in adeno-associated virus-hepatitis B virus (AAV-H-BV) mice. Materials and methods are presented below in tables 1-4. Table F describes the nucleic acid sequences used for siRNA-1, an siRNA. The sequences are described using modified nucleotide annotations found in Table B.
Live Phase Parameters: Based on plasma viral markers levels and body weight, 20 mice were selected and randomized into five groups for treatment. Checks were made for dead and/or moribund animals daily. Overt changes were recorded. Body weight was measured twice weekly during Day 0-97, and once weekly during Day 98-189.
Vehicle (Group 01) and Compound 1 at 55 mg/kg/dose (Groups 02, 04 and 05) were administered by oral gavage twice daily during Day 0-97. siRNA-1 at 5 mg/kg/dose was injected subcutaneously on Days 0, 14, 42 and 70 for Groups 03 and 04, and on Days 70, 84, and 102 for Group 05.
Plasma samples of 50 μL per mouse were prepared once weekly prior to dosing during Day 0-189. The samples were used for quantitative detections of HBsAg, HBeAg, and HBV DNA. Mice were sacrificed on Day 189.

C=C[C@H](C)Nc1nc2c(c(=O)n1-c1ccc(C(=O)NC)cc1)C[C@@H](C)N(C(=O)c1ccc(Br)c(C(F)(F)F)c1)C2 [Compound 2, 4-((R)-7-(4-bromo-3-(trifluoromethyl)benzoyl)-2-(((S)-but-3-en-2-yl)amino)-6-methyl-4-oxo-5,6,7,8-tetrahydropyrido[3,4-d]pyrimidin-3(4H)-yl)-N-methylbenzamide]
reduction of HBV DNA [1]: good reduction of HBV DNA

siRNA-1: siRNA with SEQ ID NO: 2 (Sense) and SEQ ID NO: 3 (Antisense), modified nucleotides per Table B (sense mC*mC*mGmUfGmUfGfCfAmCmUmUmCmGmCmUmUmCmA; antisense mU*fG*mAmAfGmCmGfAmAmGmUmGmCfAmCmAfCmGmG*mU*mC)
HBsAg effect after end of treatment (sustained or rebound) ([2]; FIGS. 3A-3B): rebound is observed
HBeAg effect after end of treatment (sustained or rebound) ([2]; FIGS. 4A-4B): rebound is observed
